In US10925874B2, “Substituted pyrazolopyrimidines as glucocerebrosidase activators” (The United States of America, as Represented by the …, priority 2010, dated 2021):

Molecular target: T1, N370S glucocerebrosidase from human spleen homogenate (Homo sapiens, UniProt P04062, N409S)
T1 construct: N370S glucocerebrosidase from human spleen homogenate as the enzyme preparation; from tissue; host or cells: human spleen homogenate
T1 sequence (P04062 40-536 N409S): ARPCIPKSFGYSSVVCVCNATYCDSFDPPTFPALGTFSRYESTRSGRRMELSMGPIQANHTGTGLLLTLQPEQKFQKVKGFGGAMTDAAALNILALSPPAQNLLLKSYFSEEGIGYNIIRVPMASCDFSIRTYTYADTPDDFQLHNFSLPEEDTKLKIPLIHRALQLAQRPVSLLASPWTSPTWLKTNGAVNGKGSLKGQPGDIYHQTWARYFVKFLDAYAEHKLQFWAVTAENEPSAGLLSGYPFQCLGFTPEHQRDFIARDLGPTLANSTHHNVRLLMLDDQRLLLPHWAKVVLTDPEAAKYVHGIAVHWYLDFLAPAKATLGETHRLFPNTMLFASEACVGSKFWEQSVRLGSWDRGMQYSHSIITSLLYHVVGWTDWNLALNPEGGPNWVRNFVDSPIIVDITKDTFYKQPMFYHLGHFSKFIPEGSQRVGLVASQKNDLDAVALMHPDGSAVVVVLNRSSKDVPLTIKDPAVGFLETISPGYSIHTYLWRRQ
Test: qHTS fluorogenic enzyme assay for activators of N370S glucocerebrosidase (4-methylumbelliferyl-beta-D-glucopyranoside substrate)
Format: biochemical
Conditions: pH 5.0, 37° C. 40 min

AC50	SMILES
0.366 µM	C#Cc1ccc(NC(=O)c2cnn3c(C)cc(C)nc23)cc1 [NCGC00188758-01, N-(4-ethynylphenyl)-5,7-dimethylpyrazolo[1,5-a]pyrimidine-3-carboxamide]
25.9 µM	Cc1cc(C)n2ncc(C(=O)Nc3cc(Cl)cc(Cl)c3)c2n1 [NCGC00229716-01, N-(3,5-dichlorophenyl)-5,7-dimethylpyrazolo[1,5-a]pyrimidine-3-carboxamide]
9.19 µM	CCc1ccc(NC(=O)c2cnn3c(-c4ccccc4)cc(C)nc23)cc1 [NCGC00229717-01, N-(4-ethylphenyl)-5-methyl-7-phenylpyrazolo[1,5-a]pyrimidine-3-carboxamide]
206 µM	Cc1ccc(NC(=O)c2cnn3c(-c4ccccc4)cc(C)nc23)cc1 [NCGC0229718-01, 5-methyl-7-phenyl-N-p-tolylpyrazolo[1,5-a]pyrimidine-3-carboxamide]
8.19 µM	Cc1cc(-c2ccccc2)nc2c(C(=O)Nc3ccc4c(c3)CCC4)cnn12 [NCGC00229719-01, N-(2,3-dihydro-1H-inden-5-yl)-7-methyl-5-phenylpyrazolo[1,5-a]pyrimidine-3-carboxamide]

Molecular target: T2, GCase (Homo sapiens, UniProt P04062, N409S)
T2 construct: evaluated in a N370S patient derived fibroblast for chaperone activity; endogenous in cells; host or cells: N370S Gaucher patient-derived fibroblasts
T2 sequence (P04062 40-536 N409S): T1 sequence (P04062 40-536 N409S)
Test: Chaperone activity in N370S patient derived fibroblast (GCase/LAMP/DAPI staining)
Format: cell-based
Conditions: NGC00188758-1 1 μM and 5 μM, isofagomine 1 μM, overlay of anti GCase R386 and LAMP stains
Excerpt: GCase was visualized with red stain (anti GCase R386 antibody), lysosome with green (LAMP), and nucleus with blue (DAPI). […] All laser settings were held constant across all of the fields imaged.

SMILES	GCase activity in the lysosome relative to vehicle control
C#Cc1ccc(NC(=O)c2cnn3c(C)cc(C)nc23)cc1 [NCGC00188758-01, N-(4-ethynylphenyl)-5,7-dimethylpyrazolo[1,5-a]pyrimidine-3-carboxamide]	significantly increased GCase activity in the lysosome
OC[C@H]1CNC[C@@H](O)[C@@H]1O [isofagomine, reference compound]	significantly increased GCase activity in the lysosome
